Reference: publication PMC10375191, “Transformable Neuropeptide Prodrug with Tumor Microenvironment Responsiveness for Tumor Growth and Metastasis Inhibition of Triple‐Negative Breast Cancer” (Advanced Science, 2023)
Starred links: 1 amine or outer side, 2 acyl side, 3 side chain; linkers in the order of their positions; H or OH if unused. Residues, ends and D or L forms follow the SMILES beside them. *: point of attachment. Doxorubicin(3'-N) = COc1cccc2c1C(=O)c1c(O)c3c(c(O)c1C2=O)C[C@@](O)(C(=O)CO)C[C@@H]3O[C@H]1C[C@H](N*)[C@H](O)[C@H](C)O1; Suc = O=C(CCC(=O)[*:2])[*:1]

Columns and labels:
[1] = target: T1, matrix metalloproteinase‐9 (MMP‐9) (Homo sapiens, UniProt P14780); assay: MMPs-responsive cleavage of DOX-P18 by MMP-9 (HPLC, MS, fluorescence); type: in vitro ADME
T1 construct: purchased Novoprotein Scientific Inc. (Shanghai, China)
T1 sequence (P14780 94-707): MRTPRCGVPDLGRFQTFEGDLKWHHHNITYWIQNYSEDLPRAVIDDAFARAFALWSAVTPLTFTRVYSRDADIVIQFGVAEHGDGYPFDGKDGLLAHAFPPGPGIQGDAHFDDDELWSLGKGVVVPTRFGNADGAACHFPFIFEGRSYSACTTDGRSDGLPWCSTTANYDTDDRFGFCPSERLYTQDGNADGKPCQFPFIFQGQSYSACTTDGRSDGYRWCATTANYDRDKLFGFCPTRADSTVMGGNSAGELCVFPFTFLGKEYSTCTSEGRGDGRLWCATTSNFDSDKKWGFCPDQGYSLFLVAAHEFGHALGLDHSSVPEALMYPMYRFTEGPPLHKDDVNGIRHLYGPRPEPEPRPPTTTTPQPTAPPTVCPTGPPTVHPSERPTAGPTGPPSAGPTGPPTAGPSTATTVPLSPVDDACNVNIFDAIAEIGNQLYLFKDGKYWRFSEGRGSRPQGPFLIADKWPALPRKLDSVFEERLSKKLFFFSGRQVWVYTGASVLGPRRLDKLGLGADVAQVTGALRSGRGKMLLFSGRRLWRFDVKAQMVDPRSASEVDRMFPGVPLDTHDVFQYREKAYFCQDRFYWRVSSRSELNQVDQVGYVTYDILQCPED
Method: The enzymatic reaction process was monitored by HPLC at 6, 12, 24, and 72 h.
Doxorubicin hydrochloride (DOX·HCl), trifluoroacetic acid (TFA), and anhydrous N,N-Dimethylformamide (DMF) were purchased from Aladdin (Shanghai, China).
Thioanisole (TA), 1,2-ethanedithiol (EDT), and phenol were obtained from Macklin (Shanghai, China). 4-methylmorpholine (NMM), N,N’-diisopropylcarbodiimide (DIC), and 1-hydroxybenzotriazole (HOBt) were purchased from OKA (Beijing, China). Rink amide methylbenzhydrylamine (MBHA) resin, Wang resin and all Fmoc-protected amino acids were obtained from NJPeptide (Nanjing, China). Ethanol, diethyl ether, acetonitrile (ACN), and methanol were purchased from Sinopharm Chemical Reagent Co., Ltd (Shanghai, China). Piperidine, p-nitrophenol, and succinic anhydride (Succ) were obtained from Sigma-Aldrich (Shanghai, China). Recombinant human matrix metalloproteinase-2 (MMP-2) and matrix metalloproteinase-9 (MMP-9) produced by Novoprotein Scientific Inc. (Shanghai, China) are supplied as a 0.2 μm filtered buffer mixture of 20 mM Tris-HCl, 2 mM CaCl2, 150 mM NaCl, 0.05 % Brij 35 (w/v), pH 7.5, and their specific activity is >1300 pmol/min/µg as measured under the described conditions. All commercial reagents and HPLC solvents were used with […]

MDA‐MB‐231 cells [2] = assay: Flow cytometry: cellular uptake and cellular MMPs-responsive drug release; type: cell-based, human
Method: MDA‐MB‐231 cells were plated in 6‐well plates (2 × 10^5 cells per well) for 24 h. […] The mean fluorescence intensity (MFI) of 1 × 10^4 cells was detected by flow cytometry (FACSCalibur, BD, USA). Besides, 5 mM ethylenediaminetetraacetic acid (EDTA) purchased from Sigma was used as a model inhibitor to inhibit MMPs activity.

MDA‐MB‐231 cells [3] = assay: CCK-8 cell viability assay, MDA-MB-231; type: cell-based, human; details: MDA-MB-231, 36 and 48 h versus 24 h
Method: (§1) MDA‐MB‐231 cells were incubated in 96‐well plates for 24 h (1 × 10^4 cells per well). […] At the appointed time, 10 µL CCK‐8 solution was dropped into each well and further co‐incubated with treated cells for 2 h. The absorbance values at 450 nm were measured by an automated plate reader (iMark (168‐1130), Biorad, USA). The IC50 values were obtained from Microsoft Excel's FORECAST formula.

MCF‐10A cells = assay: CCK-8 cell viability assay, MCF-10A; type: cell-based, human; details: 24 h
Method: as §1
mammary epithelial cell line MCF-10A after 24 h incubation. Data are presented as
means ± standard deviations (n = 3).
(1 picture or pasted object on this page, not shown here)

MDA‐MB‐231 cells [4] = assay: Wound healing experiment; type: cell-based, human
Method: Wound healing culture inserts were tightly stuck on 12‐well plates and 2 × 10^4 MDA‐MB‐231 cells were seeded in the gap of the culture inserts to incubate for 24 h. […] After incubation for 12 and 24 h, the wound healing area was photographed by a microscope (DFC 450C, Leica, Germany).

[5] = system: MDA‐MB‐231 tumor‐bearing BALB/c nude mice; assay: Biodistribution by ex vivo fluorescence imaging; type: in vivo, mouse; details: single i.v. injection, ex vivo fluorescence 2-12 h
Method: At 2, 4, 6, 8, 10, and 12 h post‐injection, the major organs and tumor were taken out and fluorescence signals were captured by IVIS.

[6] = system: MDA‐MB‐231 xenograft model; assay: In vivo antitumor evaluation, MDA-MB-231 xenograft; parameters: species or system mouse
From the text: All the animal experimental procedures were recognized and approved by the Regional Ethics Committee for Animal Experiments at Ningbo University, China (Permit NO. SYXK (Zhe) 2019‐0005). The triple‐negative breast cancer (TNBC) xenograft tumors were established on female BALB/c nude mice (≈15 g) by subcutaneous injection of MDA‐MB‐231 cells (5 × 10^6 cells in each mouse). TNBC metastasis models were constructed by injecting MDA‐MB‐231‐luc cells (1 × 10^5 cells in each mouse) through the tail vein to female BALB/c nude mice. The day that MDA‐MB‐231‐luc was injected was set as D0. In vivo imaging system (IVIS) (Lumina XRMS Ш, PerkinElmer, USA) was utilized to identify the tumor metastasis at D12.
When the tumor volume of BALB/c mice reached ≈70 mm^3 (V = L × W × W/2), the tumor‐bearing mice were randomly divided into seven groups (n = 5 for each group). […] 100 µL drug was injected intravenously through the tail vein every other day for a total of five times. The day that the first injection was given was set as D0. Tumor size and mouse weight were measured every 2 days from the day that treatment started until D26.

[7] = MDA-MB-231, 40 µg mL^−1, 1 h 37 °C, endocytosis inhibitors, flow cytometry MFI

CC[C@H](C)[C@H](NC(=O)[C@@H]1CCCN1C(=O)[C@H](CC(N)=O)NC(=O)[C@H](CC(N)=O)NC(=O)[C@H](Cc1ccc(O)cc1)NC(=O)[C@H](Cc1c[nH]cn1)NC(=O)[C@H](CCCNC(=N)N)NC(=O)CNC(=O)[C@H](CCCNC(=N)N)NC(=O)[C@@H](NC(=O)CNC(=O)[C@H](CC(C)C)NC(=O)[C@@H]1CCCN1C(=O)CCC(=O)N[C@H]1C[C@H](O[C@H]2C[C@](O)(C(=O)CO)Cc3c(O)c4c(c(O)c32)C(=O)c2c(OC)cccc2C4=O)O[C@@H](C)[C@H]1O)C(C)C)C(=O)N[C@@H](Cc1c[nH]c2ccccc12)C(=O)N[C@@H](CCCNC(=N)N)C(=O)N[C@@H](CCC(N)=O)C(=O)N[C@@H](CCCNC(=N)N)C(=O)N[C@@H](Cc1ccc(O)cc1)C(N)=O [DOX‐P18] ({Doxorubicin(3'-N)-Suc}-PLGVRGRHYNNPIWRQRY-NH2)
Cleavage efficiency of MMP-9 relative to MMP-2 ([1]; 0.1 µg mL^−1 MMP-2 or MMP-9, 20 µg mL^−1 DOX-P18, 12 and 24 h, fluorescence intensity at 592 nm (Ex 488 nm)): about 10 times | Enzymatic cleavage by MMP-9 ([1]; 1 mg mL^−1 DOX-P18 with 1 µg mL^−1 MMP-9, 37 °C, HPLC at 6, 12, 24, 72 h, monitored at 500 nm, product DOX-P3 identified by MS): efficiently cleaved | Cellular uptake at 4 °C (MFI) (MDA‐MB‐231 cells [2]; MDA-MB-231, 40 µg mL^−1 (by DOX content), DMEM 10% FBS, 1 h, 4 °C, flow cytometry, n = 3): strongly suppressed | Share of uptake by Y1R-mediated endocytosis (MDA‐MB‐231 cells [2]; MDA-MB-231, 40 µg mL^−1, 1 h 37 °C, Y1R antagonist BIBP3304 20 µM, flow cytometry MFI): 20% | Share of uptake by caveolin-mediated endocytosis (MDA‐MB‐231 cells [2]; [7]): 14% | Share of uptake by micropinocytosis (MDA‐MB‐231 cells [2]; [7]): 27% | Cell fluorescence intensity relative to EDTA-treated group (cellular drug release) (MDA‐MB‐231 cells [2]; MDA-MB-231, 48 h, without vs with 5 mM EDTA (MMPs inhibited), flow cytometry, n = 3): almost three times higher | IC50 with extended incubation time (MDA‐MB‐231 cells [3]): further reduced | IC50 (cytotoxicity), in words (MCF‐10A cells): higher | Wound healing rate (MDA‐MB‐231 cells [4]; MDA-MB-231, 5 µg mL^−1, 12 h, PBS group 50.8%): 40.3% | Wound healing rate (coverage rate) (MDA‐MB‐231 cells [4]; MDA-MB-231, 5 µg mL^−1, 24 h, PBS group defined as 100%): 71.5% | Time of highest content in tissues [5]: 6 h | Death / body weight in tumor-bearing mice ([6]; MDA-MB-231 tumor-bearing nude mice, DOX-P18 up to 100 mg kg^−1 (20 mg kg^−1 DOX), DOX at 10 and 20 mg kg^−1): no death or obvious weight losses | Tumor growth inhibition ([6]; MDA-MB-231 xenograft, 100 mg kg^−1 (equivalent to 20 mg kg^−1 DOX) i.v. every other day, five times, n = 5): significant inhibitory efficacy | Histological analysis of major organs after treatment ([6]; MDA-MB-231 xenograft, 24 days, five administrations, 5 mg kg^−1 DOX or DOX equivalent): without obvious lesions in other organs
